PubChem BioAssay AID1963986 (Molecular Pharmacology Branch, DTP, NCI, 2024)

Tested on: 171881-019-R-J1-PDC tumor spheroid viability
Assay: Anticancer human tumor 171881-019-R-J1-PDC patient-derived invasive breast carcinoma cell line growth inhibition [PI3K]
Conditions: spheroids with HUVEC and MSC; for IC50: curve of first compound; for viability, T/C: stronger effect = lower value; active means viability on the fitted dose curve at most 10% of control; inactive means the rest
Outline: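 Viability of mixed-cell spheroids was determined after exposure to pairwise combinations, one partner being inavolisib, alpelisib, duvelisib or copanlisib. Highest tested concentration matched clinical Cmax where known and 10 microM where not, descending in half-log steps.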

[1] = second compound 0.0316 µM, first compound 0.0316 µM
[2] = second compound 0.0316 µM, first compound 0.1 µM
[3] = second compound 0.0316 µM, first compound 0.316 µM
[4] = second compound 0.0316 µM, first compound 1 µM
[5] = second compound 0.0316 µM, first compound 3.16 µM
[6] = second compound 0.0316 µM, first compound 10 µM
[7] = second compound 0.1 µM, first compound 0.0316 µM
[8] = second compound 0.1 µM, first compound 0.1 µM
[9] = second compound 0.1 µM, first compound 0.316 µM
[10] = second compound 0.1 µM, first compound 1 µM
[11] = second compound 0.1 µM, first compound 3.16 µM
[12] = second compound 0.1 µM, first compound 10 µM
[13] = second compound 0.316 µM, first compound 0.0316 µM
[14] = second compound 0.316 µM, first compound 0.1 µM
[15] = second compound 0.316 µM, first compound 0.316 µM
[16] = second compound 0.316 µM, first compound 1 µM
[17] = second compound 0.316 µM, first compound 3.16 µM
[18] = second compound 0.316 µM, first compound 10 µM
[19] = second compound 1 µM, first compound 0.0316 µM
[20] = second compound 1 µM, first compound 0.1 µM
[21] = second compound 1 µM, first compound 0.316 µM
[22] = second compound 1 µM, first compound 1 µM
[23] = second compound 1 µM, first compound 3.16 µM
[24] = second compound 1 µM, first compound 10 µM
[25] = second compound 3.16 µM, first compound 0.0316 µM
[26] = second compound 3.16 µM, first compound 0.1 µM
[27] = second compound 3.16 µM, first compound 0.316 µM
[28] = second compound 3.16 µM, first compound 1 µM
[29] = second compound 3.16 µM, first compound 3.16 µM
[30] = second compound 3.16 µM, first compound 10 µM
[31] = second compound 10 µM, first compound 0.0316 µM
[32] = second compound 10 µM, first compound 0.1 µM
[33] = second compound 10 µM, first compound 0.316 µM
[34] = second compound 10 µM, first compound 1 µM
[35] = second compound 10 µM, first compound 3.16 µM
[36] = second compound 10 µM, first compound 10 µM
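Further: spheroids exposed to compound for 7 days before viability read.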
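Wherever viability, T/C is given: 100% = DMSO vehicle-treated spheroids.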

CC(C)NCC(C(=O)N1CCN(c2ncnc3c2C(C)CC3O)CC1)c1ccc(Cl)cc1 (stereo not drawn) + Cc1nc(NC(=O)N2CCCC2C(N)=O)sc1-c1ccnc(C(C)(C)C(F)(F)F)c1
< 0.0316 µM: IC50 (second compound 1 µM) | IC50 (second compound 3.16 µM) | IC50 (second compound 10 µM)
0.276 µM: IC50 (second compound 0.0316 µM)
0.0728 µM: IC50 (second compound 0.316 µM)
active: viability, T/C [6] 9.99% | viability, T/C [12] 8.89% | viability, T/C [18] 8.17% | viability, T/C [24] 7.16% | viability, T/C [28] 8.95% | viability, T/C [29] 6.94% | viability, T/C [30] 4.98% | viability, T/C [31] 3.06% | viability, T/C [32] 3.52% | viability, T/C [33] 3.3% | viability, T/C [34] 3.85% | viability, T/C [35] 2.77% | viability, T/C [36] 1.56%
inactive: viability, T/C [1] 97.9% | viability, T/C [2] 68.3% | viability, T/C [3] 50.1% | viability, T/C [4] 28.4% | viability, T/C [5] 16.7% | viability, T/C [7] 81.6% | viability, T/C [8] 64.3% | viability, T/C [9] 49.5% | viability, T/C [10] 25.9% | viability, T/C [11] 13.6% | viability, T/C [13] 55.5% | viability, T/C [14] 46.7% | viability, T/C [15] 38% | viability, T/C [16] 23.2% | viability, T/C [17] 12.6% | viability, T/C [19] 32% | viability, T/C [20] 31% | viability, T/C [21] 28.6% | viability, T/C [22] 16.1% | viability, T/C [23] 8.99% | viability, T/C [25] 14.6% | viability, T/C [26] 14.8% | viability, T/C [27] 12.4%
0.262 µM: IC50 (second compound 0.1 µM)

Cn1ncc(Cl)c1-c1cc(C(=O)NC(CN)Cc2cccc(F)c2)sc1Cl (stereo not drawn) + COc1c(OCCCN2CCOCC2)ccc2c3n(c(=NC(=O)c4cnc(N)nc4)nc12)CCN3
inactive: viability, T/C (second compound 0.00316 µM, first compound 0.0316 µM) 63.8% | viability, T/C (second compound 0.00316 µM, first compound 0.1 µM) 46.4% | viability, T/C (second compound 0.00316 µM, first compound 0.316 µM) 27.6% | viability, T/C (second compound 0.00316 µM, first compound 1 µM) 17.7% | viability, T/C (second compound 0.01 µM, first compound 0.0316 µM) 48.2% | viability, T/C (second compound 0.01 µM, first compound 0.1 µM) 37.2% | viability, T/C (second compound 0.01 µM, first compound 0.316 µM) 23.7% | viability, T/C (second compound 0.01 µM, first compound 1 µM) 16.4% | viability, T/C [1] 24.1% | viability, T/C [2] 22% | viability, T/C [3] 15.6% | viability, T/C [4] 11.3%
< 0.0316 µM: IC50 (second compound 0.01 µM) | IC50 (second compound 0.0316 µM) | IC50 (second compound 0.1 µM) | IC50 (second compound 0.316 µM) | IC50 (second compound 1 µM)
active: viability, T/C (second compound 0.00316 µM, first compound 3.16 µM) 11.5% | viability, T/C (second compound 0.00316 µM, first compound 10 µM) 3.72% | viability, T/C (second compound 0.01 µM, first compound 3.16 µM) 9.82% | viability, T/C (second compound 0.01 µM, first compound 10 µM) 4.66% | viability, T/C [5] 7.85% | viability, T/C [6] 4.52% | viability, T/C [7] 8.56% | viability, T/C [8] 6.38% | viability, T/C [9] 6.32% | viability, T/C [10] 5.69% | viability, T/C [11] 4.46% | viability, T/C [12] 2.26% | viability, T/C [13] 2.05% | viability, T/C [14] 1.87% | viability, T/C [15] 1.74% | viability, T/C [16] 1.64% | viability, T/C [17] 1.47% | viability, T/C [18] 1.92% | viability, T/C [19] 0.97% | viability, T/C [20] 1.14% | viability, T/C [21] 1.37% | viability, T/C [22] 0.72% | viability, T/C [23] 0.77% | viability, T/C [24] 0.22%
0.0745 µM: IC50 (second compound 0.00316 µM)

C[C@@H](NC(=O)c1ncnc(N)c1Cl)c1ncc(C(=O)Nc2cc(C(F)(F)F)c(Cl)cn2)s1 + Cc1nc(NC(=O)N2CCCC2C(N)=O)sc1-c1ccnc(C(C)(C)C(F)(F)F)c1
inactive: viability, T/C [1] 92.6% | viability, T/C [2] 83.5% | viability, T/C [3] 84.8% | viability, T/C [4] 79.5% | viability, T/C [5] 65% | viability, T/C [6] 38.7% | viability, T/C [7] 86.2% | viability, T/C [8] 82.2% | viability, T/C [9] 77.9% | viability, T/C [10] 65.9% | viability, T/C [11] 49.2% | viability, T/C [12] 30.7% | viability, T/C [13] 55.3% | viability, T/C [14] 56.6% | viability, T/C [15] 51.8% | viability, T/C [16] 47.3% | viability, T/C [17] 31.9% | viability, T/C [18] 17.5% | viability, T/C [19] 32.7% | viability, T/C [20] 33.3% | viability, T/C [21] 31.1% | viability, T/C [22] 24.5% | viability, T/C [23] 17.3% | viability, T/C [25] 16.2% | viability, T/C [26] 15.2% | viability, T/C [27] 12.5%
3 µM: IC50 (second compound 0.1 µM)
6.1 µM: IC50 (second compound 0.0316 µM)
0.555 µM: IC50 (second compound 0.316 µM)
active: viability, T/C [24] 7.53% | viability, T/C [28] 10.3% | viability, T/C [29] 5.29% | viability, T/C [30] 2.14% | viability, T/C [31] 4.03% | viability, T/C [32] 3.76% | viability, T/C [33] 3.28% | viability, T/C [34] 2.32% | viability, T/C [35] 1.29% | viability, T/C [36] 0.49%
< 0.0316 µM: IC50 (second compound 1 µM) | IC50 (second compound 3.16 µM) | IC50 (second compound 10 µM)

C=CC(=O)N1CCN(c2nc(=O)n(-c3c(C)ccnc3C(C)C)c3nc(-c4c(O)cccc4F)c(F)cc23)C(C)C1 (stereo not drawn) + Cc1nc(NC(=O)N2CCCC2C(N)=O)sc1-c1ccnc(C(C)(C)C(F)(F)F)c1
9.73 µM: IC50 (second compound 0.0316 µM)
inactive: viability, T/C [1] 92.6% | viability, T/C [2] 83.4% | viability, T/C [3] 98.4% | viability, T/C [4] 92% | viability, T/C [5] 79.6% | viability, T/C [6] 48.8% | viability, T/C [7] 84.1% | viability, T/C [8] 73.2% | viability, T/C [9] 86.3% | viability, T/C [10] 87.4% | viability, T/C [11] 86.9% | viability, T/C [12] 48.2% | viability, T/C [13] 55% | viability, T/C [14] 50.9% | viability, T/C [15] 56.8% | viability, T/C [16] 60.4% | viability, T/C [17] 57.9% | viability, T/C [18] 34.7% | viability, T/C [19] 29.8% | viability, T/C [20] 32.3% | viability, T/C [21] 32.1% | viability, T/C [22] 32.4% | viability, T/C [23] 33% | viability, T/C [24] 19.4% | viability, T/C [25] 14.7% | viability, T/C [26] 15.2% | viability, T/C [27] 14.5% | viability, T/C [28] 15.2% | viability, T/C [29] 16.8% | viability, T/C [30] 8.95%
active: viability, T/C [31] 3.67% | viability, T/C [32] 3.63% | viability, T/C [33] 4.33% | viability, T/C [34] 4.28% | viability, T/C [35] 4.51% | viability, T/C [36] 2.34%
9.44 µM: IC50 (second compound 0.1 µM)
< 0.0316 µM: IC50 (second compound 1 µM) | IC50 (second compound 3.16 µM) | IC50 (second compound 10 µM)
2.35 µM: IC50 (second compound 0.316 µM)
